{
  "source": "patent US20160113931A1",
  "about": "“Method of treating and/or preventing neurodegenerative diseases” (University of Macau, priority 2014, published 2016)",
  "format_in_all_cases": "cell-based, human",
  "key": {"[1]": {"test_system": "PKA/CREB/Bcl2 signaling pathway", "experiment": "Western blotting of phosphorylated PKA, phosphorylated CREB and Bcl2 in SH-SY5Y cells", "procedure": "Cells were pre-treated with 30 μM BHDPC for 2 h.\nCells were pre-treated with BHDPC (3, 10 and 30 μM) for 2 h and then were collected at 120 min. […] The expression ratios of phosphorylated PKA, phosphorylated CREB and Bcl2 proteins as detected by Western blotting with specific antibodies were shown in FIGS. 8B, 8C and 8D respectively.\nAfter treatment, SH-SY5Y cells were collected and washed three times with ice-cold PBS. Then the harvested cells were lysed on ice for 30 min in RIPA lysis buffer containing 1% PMSF and 1% Protease Inhibitor Cocktail and centrifuged at 12,500×g for 20 min at 4° C. The supernatant was collected and protein concentrations were determined using the BCA protein assay kit (Thermo Scientific Pierce). Aliquots of protein samples (30 μg) were boiled for 5 min at 95° C. and electrophoresed on SDS-PAGE (10% (w/v) polyacrylamide gel) and then transferred to a polyvinylidene difluoride (PVDF) membrane (Bio-Rad, Hercules, Calif.). Subsequently, the membrane was blocked with 5% (w/v) non-fat milk in PBST (PBS containing 0.1% Tween-20) for 2 h at room temperature. The blots were incubated overnight at 4° C. with primary antibodies. After washed with PBST for 20 min at room temperature, the membranes were further incubated with horseradish peroxidase-conjugated secondary antibodies for 2 h at room temperature. Finally, protein bands were visualized using an ECL plus Western blotting detection reagents (GE Healthcare, Piscataway, N.J., USA). The membranes were then scanned on a Bio-Rad ChemiDoc XRS Imaging System and the intensity of the protein bands were analyzed using the Bio-Rad Quantity One Software (4.5.2).\nTo determine which survival signaling pathway is regulated by BHDPC, SH-SY5Y cells were pre-treated with 30 μM BHDPC for 2 h, and then the phosphorylation of PKA at […] were examined by Western blot analysis. […] The inventors also determined whether BHDPC affected the phosphorylation of CREB. […] Bcl2 is a well-known anti-apoptotic protein. The inventors determined whether BHDPC affected the expression of Bcl2."}, "[2]": {"test_system": "caspase 3", "experiment": "Caspase 3 activity assay in SH-SY5Y cells", "procedure": "After pre-treatment with 30 μM BHDPC or 0.1% DMSO (vehicle control) for 2 h, SH-SY5Y cells were incubated with or without 2 mM MPP^+ for another 36 h. (FIG. 6A) Δψm was determined by the JC-1 assay.\nAfter treatment, the activity of caspase 3 was measured using the commercially available EnzChek Caspase-3 Assay Kit (Invitrogen, USA) according to the manufacturer's protocol. Briefly, SH-SY5Y cells were lysed in lysis buffer and centrifuged at 12,500×g for 5 min. 15 μL of cell lysate was incubated with 50 μL of 2× substrate working solution at room temperature for 30 min in 96-well plates. The fluorescence intensity was then determined by a SpectraMax M5 microplate reader at an excitation wavelength of 490 nm and emission at 520 nm. The fluorescence intensity of each sample was normalized to the protein concentration of sample. All values of % caspase 3 activities were normalized to the control group.\nCaspase 3 activation plays a key role in the execution-phase of the apoptosis."}, "[3]": {"test_system": "SH-SY5Y cells", "experiment": "Cytotoxicity of BHDPC in SH-SY5Y cells (MTT assay)", "conditions": "BHDPC 3 to 30 μM, 24 h", "procedure": "The human neuroblastoma SH-SY5Y cells were purchased from America Tissue Type Collection. The cells were maintained in DMEM medium supplemented with 10% fetal bovine serum and penicillin/streptomycin (100 U/mL; 100 μg/mL) in a 37° C., 5% CO2 incubator. All experiments were carried out 48 hours after the cells were seeded.\nThe percentage of surviving cells was estimated by determining the activity of mitochondrial dehydrogenases with 3(4,5-dimethylthiazol-2-yl)-2,5-diphenyltetrazolium bromide (MTT) assay. After drug treatment, cells were incubated at 37° C. for 4 h in 0.5 mg/mL MTT solution. The medium was then removed, and 100 μL of DMSO was added to each well to dissolve the violet formazan crystals. The absorbance of the samples was measured at a wavelength of 570 nm with 655 nm as a reference wavelength. All values were normalized to the control groups.\nTo evaluate the cytotoxicity of BHDPC, SH-SY5Y cells were incubated with various concentrations of BHDPC for 24 h and the cell viability was determined using MTT assay."}},
  "note": "“Also recorded” adds a separate entry of the source.",
  "data": [
    {"smiles": "COc1cc(C2C(C(=O)OCc3ccccc3)=C(C)Nc3nnnn32)ccc1O", "note": "(stereo not shown) [BHDPC, benzyl 7-(4-hydroxy-3-methoxyphenyl)-5-methyl-4,7-dihydrotetrazolo[1,5-a]pyrimidine-6-carboxylate]", "values": [
      {"measurement": "phosphorylation intensity of PKA, time course", "setting": "[1]; 30 μM, 0 to 120 min, particularly at 90 and 120 min", "value": "gradually increased; also recorded: activated PKA signaling pathway"},
      {"measurement": "expression of Bcl2, dose-dependent", "setting": "[1]; 3, 10 and 30 μM, 2 h", "value": "up-regulated"},
      {"measurement": "phosphorylation intensity of CREB, dose-dependent", "setting": "[1]; 3, 10 and 30 μM, 2 h", "value": "increased"},
      {"measurement": "phosphorylation intensity of PKA, dose-dependent", "setting": "[1]; 3, 10 and 30 μM, 2 h", "value": "increased"},
      {"measurement": "MPP+-induced caspase 3 activation", "setting": "[2]; 30 μM pre-treatment, 2 mM MPP+ 36 h", "value": "significantly reduced; also recorded: attenuated"},
      {"measurement": "caspase 3 activity", "setting": "[2]; BHDPC alone, without MPP+", "value": "did not affect caspase 3 activity"},
      {"measurement": "cytotoxicity (cell viability, MTT)", "setting": "[3]", "value": "did not cause any cytotoxicity"}
    ]}
  ]
}
